“And” between values parts separate entries of the source, which are not always exact repeats. Equal entries are not always repeated.
Columns and labels:
normal rats = assay: Effect on blood pressure of normal rats by single oral administration; format: in vivo, Wistar rats; details: for inhibition in vivo at 0.5 mg/kg / inhibition in vivo at 1 mg/kg / inhibition in vivo at 2 mg/kg / change in vivo at 0.5 mg/kg / change in vivo at 1 mg/kg / change in vivo at 2 mg/kg: Rattus norvegicus, po, single, normal rats; for inhibition in vivo at 0.5 mg/kg / inhibition in vivo at 1 mg/kg / inhibition in vivo at 2 mg/kg: 8 h, read-out: blood pressure reduction at 8 h after the administration; for inhibition in vivo at 0.5 mg/kg / change in vivo at 0.5 mg/kg: 0.5 mg/kg p.o.; for inhibition in vivo at 1 mg/kg / change in vivo at 1 mg/kg: 1.0 mg/kg p.o.; for inhibition in vivo at 2 mg/kg / change in vivo at 2 mg/kg: 2.0 mg/kg p.o.; for change in vivo at 0.5 mg/kg / change in vivo at 1 mg/kg / change in vivo at 2 mg/kg: read-out: variations on heart rate
[1] = system: renovascular hypertensive rats; assay: Effect on reducing blood pressure of renovascular hypertensive rats by single oral administration; format: in vivo, Wistar rats; details: for change in vivo at 0.5 mg/kg / inhibition in vivo at 0.5 mg/kg / change in vivo at 1 mg/kg / inhibition in vivo at 1 mg/kg / change in vivo at 2 mg/kg / inhibition in vivo at 2 mg/kg: Rattus norvegicus, single oral administration; for change in vivo at 0.5 mg/kg / change in vivo at 1 mg/kg / change in vivo at 2 mg/kg: RHR, read-out: Variations on heart rate; for inhibition in vivo at 0.5 mg/kg / inhibition in vivo at 1 mg/kg / inhibition in vivo at 2 mg/kg: two-kidney one-clip RHR, measured 1-10 h, read-out: Maximum blood pressure reduction; for blood pressure reduction effect compared with Azilsartan medoxomil: renal artery-ligated rat, result in words

Compound	inhibition in vivo at 0.5 mg/kg (normal rats)	inhibition in vivo at 1 mg/kg (normal rats)	inhibition in vivo at 2 mg/kg (normal rats)	change in vivo at 0.5 mg/kg (normal rats)	change in vivo at 1 mg/kg (normal rats)	change in vivo at 2 mg/kg (normal rats)	change in vivo at 0.5 mg/kg [1]	inhibition in vivo at 0.5 mg/kg [1]	change in vivo at 1 mg/kg [1]	inhibition in vivo at 1 mg/kg [1]	change in vivo at 2 mg/kg [1]	inhibition in vivo at 2 mg/kg [1]	blood pressure reduction effect compared with Azilsartan medoxomil [1]	blood pressure reduction at 8 h after the administration (normal rats; rat, in vivo)	Maximum blood pressure reduction ([1]; rat, in vivo)	Variations on heart rate ([1]; rat, in vivo)
CCOc1nc2cccc(C(=O)ONC(=N)Nc3ccccc3)c2n1Cc1ccc(-c2ccccc2-c2noc(=O)[nH]2)cc1 [QR01012]	1.9 ± 3.2%	3.9 ± 2.1%	4.6 ± 2.4%	1%	-3 ± 2%	-3 ± 4%	2%	17 ± 3.7%	-3 ± 4%	22 ± 1%	-5 ± 2%	27 ± 2.8%	–	–	–	–
CCOc1nc2cccc(C(=O)OCCCCOc3no[n+]([O-])c3S(=O)(=O)c3ccccc3)c2n1Cc1ccc(-c2ccccc2-c2noc(=O)[nH]2)cc1 [QR01011]	2.7 ± 3.6%	3.8 ± 2.1%	3.7 ± 5%	-3 ± 5%	6%	-5 ± 3%	-5 ± 3%	16 ± 4.3%	-8 ± 6%	28 ± 1.3%	-6 ± 4%	29 ± 4%	close to that of Azilsartan medoxomil	–	–	–
CCOc1nc2cccc(C(=O)OCOC(=O)OCc3cn(C)cn3)c2n1Cc1ccc(-c2ccccc2-c2noc(=O)[nH]2)cc1 [QR01031]	2.9 ± 2.6%	4.5 ± 3.8%	4.7 ± 3.1%	-5 ± 5%	-4 ± 3%	-8 ± 4%	-11 ± 5%	18 ± 3.5%	-18 ± 6%	25 ± 5.7%	-17 ± 5%	32 ± 2.6%	–	–	–	–
CCOc1nc2cccc(C(=O)OC3CCc4c3no[n+]4[O-])c2n1Cc1ccc(-c2ccccc2-c2noc(=O)[nH]2)cc1 (stereo not shown) [QR01035]	6.4 ± 2.1%	3.4 ± 2.5%	6.1 ± 3.8%	-4 ± 3%	-3 ± 3%	6%	-14 ± 6%	20 ± 3.1%	-23 ± 6%	28 ± 4.5%	-26 ± 5%	36 ± 4.6%	close to that of Azilsartan medoxomil	–	–	–
CCOc1nc2cccc(C(=O)OC(C)OC(=O)OCc3ccn(C)c3)c2n1Cc1ccc(-c2ccccc2-c2noc(=O)[nH]2)cc1 (stereo not shown) [QR01033]	2.3 ± 3.2%	6.4 ± 2.9%	4.2 ± 5%	-3 ± 4%	-5 ± 3%	-1 ± 7%	-8 ± 2%	19 ± 2.1%	-15 ± 6%	26 ± 3.7%	-19 ± 7%	32 ± 4%	–	–	–	–
CCOc1nc2cccc(C(=O)OCc3nc(C)c(C)nc3C)c2n1Cc1ccc(-c2ccccc2-c2noc(=O)[nH]2)cc1 [QR01006]	6.3 ± 2.8%	7.2 ± 1.9%	4.2 ± 2.1%	-3 ± 4%	2%	-5 ± 6%	-4 ± 2%	14 ± 3.4%	-5 ± 3%	18 ± 3.6%	-5 ± 3%	24 ± 4.1%	–	–	–	–
CCOc1nc2cccc(C(=O)OCOC(=O)OC(C)C)c2n1Cc1ccc(-c2ccccc2-c2noc(=O)[nH]2)cc1 [QR01002]	5.6 ± 2.3%	6.4 ± 2.1%	6.4 ± 2.1%	-4 ± 5%	-5 ± 4%	5%	-5 ± 4%	12 ± 2.4%	-8 ± 3%	15 ± 1.8%	-6 ± 4%	19 ± 4.2%	–	–	–	–
CCOc1nc2cccc(C(=O)OC(OC(=O)OCc3nc(C)c(C)nc3C)C(C)C)c2n1Cc1ccc(-c2ccccc2-c2noc(=O)[nH]2)cc1 (stereo not shown) [QR01027]	5.2 ± 3%	4.8 ± 4.2%	2.8 ± 3.9%	-3 ± 4%	5%	-3 ± 4%	-2 ± 3%	14 ± 2%	-5 ± 3%	18 ± 2.9%	-6 ± 4%	23 ± 4.6%	–	–	–	–
CCOc1nc2cccc(C(=O)OCOC(=O)OCc3ccno3)c2n1Cc1ccc(-c2ccccc2-c2noc(=O)[nH]2)cc1 [QR01030]	2.9 ± 3%	5.2 ± 4.3%	3.7 ± 5.8%	-2 ± 4%	4%	-3 ± 5%	-12 ± 6%	18 ± 2%	-20 ± 6%	25 ± 3.6%	-18 ± 7%	30 ± 4.6%	–	–	–	–
1-(6-methypyridazine-2-methoxy-carbonyloxy)ethyl-2-ethoxy-1-{[2′-(5-oxo-4,5-dihydro-1,2,4-oxadiazole)-3-yl)biphenyl-4-yl]methyl}-1H-benzimidazole-7-carboxylate [QR01029]	–	–	–	–	–	–	–	–	–	–	–	–	–	4.2 ± 3.2% and 5.8 ± 2.2% and 3.4 ± 4.8%	12 ± 2.1% and 15 ± 4.3% and 24 ± 5.2%	−4 ± 3% and −5 ± 2% and −8 ± 2%
CCOc1nc2cccc(C(=O)Oc3ccc(OCc4c(-c5ccccc5)no[n+]4[O-])cc3)c2n1Cc1ccc(-c2ccccc2-c2noc(=O)[nH]2)cc1 [QR01010]	2.1 ± 3.2%	4.6 ± 4.7%	5.7 ± 2.3%	5%	-5 ± 1%	-4 ± 5%	5%	21 ± 4.7%	-3 ± 1%	26 ± 5.4%	-5 ± 3%	30 ± 3.6%	–	–	–	–
CCOc1nc2cccc(C(=O)OCc3oc(=O)c(=O)oc3C)c2n1Cc1ccc(-c2ccccc2-c2noc(=O)[nH]2)cc1 [QR01014]	2.9 ± 3.4%	2.7 ± 3.6%	4.6 ± 3.2%	-4 ± 2%	-3 ± 3%	4%	-2 ± 3%	16 ± 3.5%	-4 ± 2%	21 ± 4.3%	-4 ± 5%	26 ± 2.1%	–	–	–	–
CCOC(=O)C(=O)OC(C)C(=O)COC(=O)c1cccc2nc(OCC)n(Cc3ccc(-c4ccccc4-c4noc(=O)[nH]4)cc3)c12 (stereo not shown) [QR01015]	3.7 ± 2.6%	2.3 ± 1.8%	1.8 ± 2.4%	3%	1%	-3 ± 3%	4%	10 ± 1.5%	2%	12 ± 2%	3%	18 ± 3.5%	–	–	–	–
CCOc1nc2cccc(C(=O)OCOC(=O)OCc3ccn(C)c3)c2n1Cc1ccc(-c2ccccc2-c2noc(=O)[nH]2)cc1 [QR01032]	4.7 ± 3.1%	5.2 ± 2.7%	4.8 ± 3.6%	-8 ± 6%	-5 ± 2%	-3 ± 5%	-8 ± 6%	20 ± 4.1%	-9 ± 4%	28 ± 3.1%	-9 ± 5%	35 ± 4.6%	close to that of Azilsartan medoxomil	–	–	–
CCOc1nc2cccc(C(=O)OCCCCO[N+](=O)[O-])c2n1Cc1ccc(-c2ccccc2-c2noc(=O)[nH]2)cc1 [QR01008]	4.5 ± 2.7%	4.6 ± 2.5%	2.1 ± 2.4%	-6 ± 2%	4%	-2 ± 3%	-8 ± 5%	17 ± 3.1%	-15 ± 3%	28 ± 3.4%	-18 ± 5%	35 ± 3.4%	close to that of Azilsartan medoxomil	–	–	–
CCOc1nc2cccc(C(=O)OCCOC(C)=O)c2n1Cc1ccc(-c2ccccc2-c2noc(=O)[nH]2)cc1 [QR01004]	7.5 ± 1.4%	6.7 ± 1.3%	5.7 ± 2.6%	-1 ± 2%	-2 ± 1%	3%	0%	7 ± 1.2%	-5 ± 3%	10 ± 2.3%	-3 ± 1%	12 ± 3.4%	–	–	–	–

— patent US9708306B2, “Benzimidazole derivatives and preparation process and pharmaceutical uses thereof” (WUHAN LL SCIENCE AND TECHNOLOGY DEVELOPMENT CO., LTD, priority 2015, dated 2017)
